For 1 compound, Ki results are on record in PMC3907678 (Tumour Biology, 2013).

Broadly, the pKi is −log10 of the Ki, conventionally taken in molar units. Higher therefore signals a low Ki.

The experiment has as its target PDE1 (calmodulin-dependent 3,5-cyclic-nucleotide phosphodiesterase). Briefly: CaM-dependent PDE1 cAMP hydrolysis assay, Lineweaver-Burk and Dixon plots. The format is biochemical.

pKi: −log10 of the molar value.

`C[C@@H]1CC[C@H]2[C@@H](C)C(=O)O[C@@H]3O[C@@]4(C)CC[C@@H]1[C@]32OO4` [artemisinin] gave a pKi of 5.00.
